Results as given in the supplement of paper PMC4862054.

Columns and labels:
Settings in all cases: 72 h
DU-4475 = system: DU-4475
How it was run: (§1)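 After 72 h on 384-well plates pre-loaded with compound in 5 µl medium, breast cancer cell lines seeded in 20 µl were assayed for viability with 2.5 µl CellTiter-Blue at 37 °C for 2 h, read at 560/590 nm. Each plate was quality-checked by Z'-factor and normalised to vehicle and a positive kill control. EC50 comes from the fitted percent-inhibition dose-response curve, censored at the top concentration, and rows scoring zero for drug sensitivity were left out.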

MDA-MB-453 = system: MDA-MB-453
How it was run: as §1

BT-549 = system: BT-549
Experimental: (§2)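 Drug sensitivity and resistance testing (DSRT) of breast cancer cell lines in 384-well plates, 5 concentrations in 10-fold dilutions over a compound-specific 10,000-fold range. After 72 h, cytotoxicity was read by CellTox Green fluorescence and viability by CellTiter-Glo luminescence (multiplexed), normalised to DMSO and benzethonium chloride controls. EC50 is the inflection point of the fitted dose-response curve (bottom asymptote free, so it can be relative for partial curves) and is censored at the highest tested concentration. Rows with DSS 0 (no meaningful response) were excluded.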

CAL-148 = system: CAL-148
How it was run: as §1

BT-474 = system: BT-474
Experimental: as §2

CAL-51 [1] = system: CAL-51
Experimental: as §2

CAL-85-1 [2] = system: CAL-85-1
Experimental: as §2

MDA-MB-468 = system: MDA-MB-468
Experimental: as §2

Hs578T = system: Hs578T
Experimental: as §2

CAL-51 [3] = system: CAL-51; remark: listed apart in the source
How it was run: as §1

CAL-85-1 [4] = system: CAL-85-1; remark: listed apart in the source
How it was run: as §1

Compound	EC50, CellTiter-Blue viability (DU-4475) [nM]	EC50, CellTiter-Blue viability (MDA-MB-453) [nM]	EC50, CellTox Green (BT-549) [nM]	EC50, CellTiter-Blue viability (CAL-148) [nM]	EC50, CellTox Green (BT-474) [nM]	EC50, CellTox Green (CAL-51 [1]) [nM]	EC50, CellTox Green (CAL-85-1 [2]) [nM]	EC50, CellTox Green (MDA-MB-468) [nM]	EC50, CellTox Green (Hs578T) [nM]	EC50, CellTiter-Blue viability (CAL-51 [3]) [nM]	EC50, CellTiter-Blue viability (CAL-85-1 [4]) [nM]
Cc1cc(Nc2nc(N[C@@H](C)c3ncc(F)cn3)ncc2Cl)[nH]n1 [AZD1480]	443	782	> 1000								
CC1(C)CCC(c2ccc(Cl)cc2)=C(CN2CCN(c3ccc(C(=O)NS(=O)(=O)c4ccc(N[C@H](CCN5CCOCC5)CSc5ccccc5)c(S(=O)(=O)C(F)(F)F)c4)cc3)CC2)C1 [Navitoclax]	286			129	1540	906	517	1740			
O=[N+]([O-])c1ccc2c(c1)S(=O)(=O)C=C2 [Stattic]			1070		1890	1390	1110	1130	1710		
CN(Cc1cnc2nc(N)nc(N)c2n1)c1ccc(C(=O)N[C@@H](CCC(=O)O)C(=O)O)cc1 [Methotrexate]				46.5			> 50000		11000	84.8	71.7
CCN(CC)CCCC(C)Nc1ccnc2cc(Cl)ccc12 (stereo unspecified) [Chloroquine]			24800		4950	50800	20800	568	18800		
CC(C)(C)NC(=O)[C@H]1CC[C@H]2[C@@H]3CC[C@H]4NC(=O)C=C[C@]4(C)[C@H]3CC[C@]12C [Finasteride]	5420	7430		8190						8160	
O=C(CCCCCCC(=O)Nc1ccccc1)NO [Vorinostat]	9000	960	> 10000	3250	6410	2660		6570	948		3890
Cc1cn(-c2cc(NC(=O)c3ccc(C)c(Nc4nccc(-c5cccnc5)n4)c3)cc(C(F)(F)F)c2)cn1 [Nilotinib]									> 10000		
CN(C)C(=N)NC(=N)N [Metformin]						100		710			
CNC(=O)c1ccccc1Sc1ccc2c(/C=C/c3ccccn3)n[nH]c2c1 [Axitinib]	2250	657		1880		1180				1620	1250
C=CCn1c(=O)c2cnc(Nc3ccc(N4CCN(C)CC4)cc3)nc2n1-c1cccc(C(C)(C)O)n1 [MK1775]	477	310	1430	242	928	154	331	156	2130	382	507
CC(=O)[C@]1(O)Cc2c(O)c3c(c(O)c2[C@@H](O[C@H]2C[C@H](N)[C@H](O)[C@H](C)O2)C1)C(=O)c1ccccc1C3=O [Idarubicin]	23.4	396		18.7	53.5	148	198	82.7		7.78	240
COc1cc(Nc2c(C#N)cnc3cc(OCCCN4CCN(C)CC4)c(OC)cc23)c(Cl)cc1Cl [Bosutinib]	5670	2670	7580	1860	2830	1550	1950	3540	576	5020	3180
Nc1ccn([C@@H]2O[C@H](CO)[C@@H](O)C2(F)F)c(=O)n1 [Gemcitabine]	91.6	103		18.8		7.56	99.7	5.64		22	87.4
O=C(O)CNC(=O)c1c(O)c2ccccc2n(Cc2ccccc2)c1=O [IOX-2]			1170								
CC1(COc2ccc3c(c2)ncn3-c2ccc3cccc(N4CCC(N)CC4)c3n2)COC1 [Crenolanib]			3000		2390	4710	2620				
CC(C)n1cnc2c(NCCc3ccc(O)cc3)nc(-c3csc4ccccc34)nc21 [StemRegenin 1]					> 10000						
CN[C@@H](C)C(=O)N[C@H]1CN(C(=O)CC(C)C)CC[C@H]2CC[C@@H](C(=O)NC(c3ccccc3)c3ccccc3)N2C1=O [AT-406]			18.9		> 10000		75.9				
CO[C@@H]1[C@H](N(C)C(=O)c2ccccc2)C[C@H]2O[C@]1(C)n1c3ccccc3c3c4c(c5c6ccccc6n2c5c31)C(=O)NC4 [Midostaurin]	451	92.3	1060			29.6		384	997	182	314
CC(C)(C)c1nc(-c2cccc(NS(=O)(=O)c3c(F)cccc3F)c2F)c(-c2ccnc(N)n2)s1 [Dabrafenib]									9.91		
C/C(=C\c1csc(C)n1)[C@@H]1C[C@@H]2O[C@]2(C)CCC[C@H](C)[C@H](O)[C@@H](C)C(=O)C(C)(C)[C@@H](O)CC(=O)N1 [Ixabepilone]	642	515	10.8	601		38.4	437			> 1000	947
CC(C)C[C@H](NC(=O)[C@@H](COC(C)(C)C)NC(=O)[C@H](Cc1ccc(O)cc1)NC(=O)[C@H](CO)NC(=O)[C@H](Cc1c[nH]c2ccccc12)NC(=O)[C@H](Cc1cnc[nH]1)NC(=O)[C@@H]1CCC(=O)N1)C(=O)N[C@@H](CCCNC(=N)N)C(=O)N1CCC[C@H]1C(=O)NNC(N)=O [Goserelin]					> 10000						
COc1ccc(S(=O)(=O)Nc2cccnc2Nc2ccc(O)cc2)cc1 [ABT-751]	1250	114	190	949		7380	194	2.99	1410	772	290
CO[C@@]12[C@H](COC(N)=O)C3=C(C(=O)C(C)=C(N)C3=O)N1C[C@@H]1N[C@@H]12 [Mitomycin C]	5070	3420		2940		307		27.6	> 10000	5790	3920
CCNC(=O)c1noc(-c2cc(C(C)C)c(O)cc2O)c1-c1ccc(CN2CCOCC2)cc1 [NVP-AUY922]	15.9	15.3		19.4	219	74.6	84.1		247	22.2	18.8
